GI50 data for 15 compounds are collected here from patent US20240228458A1, “PYRIMIDINE DERIVATIVE HAVING PROTEIN KINASE INHIBITORY ACTIVITY, AND THERAPEUTIC PHARMACEUTICAL COMPOSITION COMPRISING SAME” (THERAPEX CO., LTD., priority 2021, published 2024).

Holding throughout (type): cell-based
In assay [1] the test system is Ba/F3 cells expressing del19/T790M (EGFR-DT). The assay can be described thus: Growth inhibition (GI50) of Ba/F3 cells expressing del19/T790M (EGFR-DT), Celltiter glo. The conditions noted are these: Mus musculus, BaF3, 72 h. A digest of the protocol:
(§1)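 Ba/F3 cells carrying each EGFR variant were plated at 100,000 cells/ml; after 4 h, compound was added as 10-point 4-fold dilutions (top stock 2 mM, 0.5% DMSO). After 72 h at 37 °C, viability was read by CellTiter-Glo; GI50 is the molar concentration (μM) giving 50% growth inhibition.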

Assay [2] relates to Ba/F3 cells expressing EGFR-wt. The assay can be described thus: Growth inhibition (GI50) of Ba/F3 cells expressing EGFR-wt, Celltiter glo. The conditions noted are these: Mus musculus, BaF3, 72 h. A digest of the protocol: as §1
For another assay, the system named is parental Ba/F3 cell line. The assay can be described thus: Growth inhibition (GI50) of the parental Ba/F3 cell line (not introduced with EGFR variants), Celltiter glo. The note with it: Mus musculus, BaF3, 72 h, parental Ba/F3 cells. In outline:
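Viable cell count by CellTiter-Glo after 72 h at 37 °C gave GI50 values (μM, 50% growth inhibition). Cells lacking EGFR variants were seeded at 100,000 cells/ml and dosed 4 h later with 4-fold serial dilutions from a 2 mM stock, 0.5% DMSO.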

The subject of assay [3] is Ba/F3 cells expressing L858R/T790M/C797S (EGFR-LTC). The assay can be described thus: Growth inhibition (GI50) of Ba/F3 cells expressing L858R/T790M/C797S (EGFR-LTC), Celltiter glo. The conditions noted are these: Mus musculus, BaF3, 72 h. In outline:
as §1

Assay [4] has as its system Ba/F3 cells expressing del19/T790M/C797S (EGFR-DTC). The assay can be described thus: Growth inhibition (GI50) of Ba/F3 cells expressing del19/T790M/C797S (EGFR-DTC), Celltiter glo. The conditions noted are these: Mus musculus, BaF3, 72 h. A digest of the protocol: as §1
Assay [5] deals with Ba/F3 cells expressing L858R/T790M (EGFR-LT). The assay can be described thus: Growth inhibition (GI50) of Ba/F3 cells expressing L858R/T790M (EGFR-LT), Celltiter glo. The note with it: Mus musculus, BaF3, 72 h. A digest of the protocol: as §1

As to `COc1cc(N2CCC(N3CCN(C4CC4)CC3)CC2)c(C)cc1Nc1ncc(Cl)c(Nc2cc3c(cc2NS(C)(=O)=O)CCO3)n1` [Example 208, N-(6-((5-chloro-2-((4-(4-(4-cyclopropylpiperazin-1-yl)piperidin-1-yl)-2-methoxy-5-methylphenyl)amino)pyrimidin-4-yl)amino)-2,3-dihydrobenzofuran-5-yl)methanesulfonamide], the GI50 lay in the range of 1 to 25 nM in assay [1]; 100 to 500 nM in assay [2]; 2000 to 10000 nM in the assay with parental Ba/F3 cell line; 25 to 100 nM in assay [3]; 1 to 25 nM in assay [4]; 1 to 25 nM in assay [5].
On to `COc1cc(N2CCC(N3CCC(N(C)C)C3)CC2)c(C)cc1Nc1ncc(Cl)c(Nc2cc3c(cc2NS(C)(=O)=O)CCO3)n1` (stereo not drawn) [Example 209, N-(6-((5-chloro-2-((4-(4-(3-(dimethylamino)pyrrolidin-1-yl)piperidin-1-yl)-2-methoxy-5-methylphenyl)amino)pyrimidin-4-yl)amino)-2,3-dihydrobenzofuran-5-yl)methanesulfonamide], for which the GI50 in assay [1] fell in the range of 25 to 100 nM; in assay [2], 100 to 500 nM; in the assay on parental Ba/F3 cell line, 2000 to 10000 nM; in assay [3] it was 25 to 100 nM; in assay [4], 1 to 25 nM; in assay [5], 1 to 25 nM.
Turning to `Cc1cc(Nc2ncc(Cl)c(Nc3cc4c(cc3NS(C)(=O)=O)CCO4)n2)c(Cl)cc1N1CCC(N2CCC(N(C)C)C2)CC1` (stereo not drawn) [Example 210, N-(6-((5-chloro-2-((2-chloro-4-(4-(3-(dimethylamino)pyrrolidin-1-yl)piperidin-1-yl)-5-methylphenyl)amino)pyrimidin-4-yl)amino)-2,3-dihydrobenzofuran-5-yl)methanesulfonamide], the GI50 in assay [1] is 25 to 100 nM; in assay [2], 500 to 2000 nM; in the assay with parental Ba/F3 cell line it was 2000 to 10000 nM; in assay [3], 25 to 100 nM; in assay [4], 100 to 500 nM; in assay [5] it was 25 to 100 nM.
Consider `COc1cc(N2CCC(N3CCC(N(C)C)C3)CC2)c(C)cc1Nc1ncc(Br)c(Nc2cc3c(cc2NS(C)(=O)=O)CCO3)n1` (stereo not drawn) [Example 211, N-(6-((5-bromo-2-((4-(4-(3-(dimethylamino)pyrrolidin-1-yl)piperidin-1-yl)-2-methoxy-5-methylphenyl)amino)pyrimidin-4-yl)amino)-2,3-dihydrobenzofuran-5-yl)methanesulfonamide], for which the GI50 in assay [1] lay within 1 to 25 nM; in assay [2], 100 to 500 nM; in the assay with parental Ba/F3 cell line, 2000 to 10000 nM; in assay [3], 1 to 25 nM; in assay [4], 25 to 100 nM; in assay [5], 25 to 100 nM.
Consider `COc1cc(N2CCC(N3CCN(C4CC4)CC3)CC2)c(C)cc1Nc1ncc(Br)c(Nc2cc3c(cc2NS(C)(=O)=O)CCO3)n1` [Example 212, N-(6-((5-bromo-2-((4-(4-(4-cyclopropylpiperazin-1-yl)piperidin-1-yl)-2-methoxy-5-methylphenyl)amino)pyrimidin-4-yl)amino)-2,3-dihydrobenzofuran-5-yl)methanesulfonamide], for which the 50% growth inhibitory concentration (GI50) fell in the range of 1 to 25 nM in assay [1]; 100 to 500 nM in assay [2]; 2000 to 10000 nM with parental Ba/F3 cell line; 1 to 25 nM in assay [3]; 25 to 100 nM in assay [4]; 1 to 25 nM in assay [5].
Take `Cc1cc(Nc2ncc(Br)c(Nc3cc4c(cc3NS(C)(=O)=O)CCO4)n2)c(Cl)cc1N1CCC(N2CCC(N(C)C)C2)CC1` (stereo not drawn) [Example 213, N-(6-((5-bromo-2-((2-chloro-4-(4-(3-(dimethylamino)pyrrolidin-1-yl)piperidin-1-yl)-5-methylphenyl)amino)pyrimidin-4-yl)amino)-2,3-dihydrobenzofuran-5-yl)methanesulfonamide]: the GI50 in assay [1] was 1 to 25 nM; in assay [2] it was 100 to 500 nM; in the assay on parental Ba/F3 cell line, 2000 to 10000 nM; in assay [3] it was 25 to 100 nM; in assay [4], 25 to 100 nM; in assay [5], 100 to 500 nM.
On to `Cc1cc(Nc2ncc(Br)c(Nc3cc4c(cc3NS(C)(=O)=O)CCO4)n2)c(Cl)cc1N1CCC(N2CCCC(N(C)C)C2)CC1` (stereo not drawn) [Example 214, N-(6-((5-bromo-2-((2-chloro-4-(3-(dimethylamino)-[1,4′-bipiperidin]-1′-yl)-5-methylphenyl)amino)pyrimidin-4-yl)amino)-2,3-dihydrobenzofuran-5-yl)methanesulfonamide], for which the GI50 was 1 to 25 nM in assay [1]; 100 to 500 nM in assay [2]; 2000 to 10000 nM in the assay on parental Ba/F3 cell line; 25 to 100 nM in assay [3]; 25 to 100 nM in assay [4]; 1 to 25 nM in assay [5].
Turning to `COc1cc(N2CCC(N3CCNCC3)CC2)c(C)cc1Nc1ncc(Br)c(Nc2cc3c(cc2NS(C)(=O)=O)CCO3)n1` [Example 215, N-(6-((5-bromo-2-((2-methoxy-5-methyl-4-(4-(piperazin-1-yl)piperidin-1-yl)phenyl)amino)pyrimidin-4-yl)amino)-2,3-dihydrobenzofuran-5-yl)methanesulfonamide], the 50% growth inhibitory concentration (GI50) lay in the range of 1 to 25 nM in assay [1]; 100 to 500 nM in assay [2]; 2000 to 10000 nM with parental Ba/F3 cell line; 25 to 100 nM in assay [3]; 25 to 100 nM in assay [4]; 25 to 100 nM in assay [5].
For `COc1cc(N2CCC(N3CCCC(N(C)C)C3)CC2)c(Cl)cc1Nc1ncc(Br)c(Nc2cc3c(cc2NS(C)(=O)=O)CCO3)n1` (stereo not drawn) [Example 216, N-(6-((5-bromo-2-((5-chloro-4-(3-(dimethylamino)-[1,4′-bipiperidin]-1′-yl)-2-methoxyphenyl)amino)pyrimidin-4-yl)amino)-2,3-dihydrobenzofuran-5-yl)methanesulfonamide], the GI50 in assay [1] lay within 1 to 25 nM; in assay [2] it was 25 to 100 nM; in the assay with parental Ba/F3 cell line, 2000 to 10000 nM; in assay [3], 25 to 100 nM; in assay [4], 1 to 25 nM; in assay [5], 1 to 25 nM.
With `CN1CCN(C2CCN(c3cc(Cl)c(Nc4ncc(Br)c(Nc5cc6c(cc5NS(C)(=O)=O)CCO6)n4)cc3Cl)CC2)CC1` [Example 217, N-(6-((5-bromo-2-((2,5-dichloro-4-(4-(4-methylpiperazin-1-yl)piperidin-1-yl)phenyl)amino)pyrimidin-4-yl)amino)-2,3-dihydrobenzofuran-5-yl)methanesulfonamide], the GI50 in assay [1] is 1 to 25 nM; in assay [2] it was 100 to 500 nM; with parental Ba/F3 cell line, 500 to 2000 nM; in assay [3], 1 to 25 nM; in assay [4] it was 1 to 25 nM; in assay [5], 1 to 25 nM.
On to `COc1cc(N2CCC(N3CCCC(N(C)C)C3)CC2)c(C)cc1Nc1ncc(Cl)c(Nc2cc3c(cc2NS(C)(=O)=O)CCO3)n1` (stereo not drawn) [Example 218, N-(6-((5-chloro-2-((4-(3-(dimethylamino)-[1,4′-bipiperidin]-1′-yl)-2-methoxy-5-methylphenyl)amino)pyrimidin-4-yl)amino)-2,3-dihydrobenzofuran-5-yl)methanesulfonamide], for which the GI50 in assay [1] was in the range of 1 to 25 nM; in assay [2] it was 100 to 500 nM; in the assay with parental Ba/F3 cell line, 500 to 2000 nM; in assay [3], 100 to 500 nM; in assay [4] it was 1 to 25 nM; in assay [5], 25 to 100 nM.
Consider `COc1cc(N2CCC(N3CCCC(N(C)C)C3)CC2)c(Cl)cc1Nc1ncc(Cl)c(Nc2cc3c(cc2NS(C)(=O)=O)CCO3)n1` (stereo not drawn) [Example 219, N-(6-((5-chloro-2-((5-chloro-4-(3-(dimethylamino)-[1,4′-bipiperidin]-1′-yl)-2-methoxyphenyl)amino)pyrimidin-4-yl)amino)-2,3-dihydrobenzofuran-5-yl)methanesulfonamide], for which the GI50 was 1 to 25 nM in assay [1]; 100 to 500 nM in assay [2]; 2000 to 10000 nM in the assay on parental Ba/F3 cell line; 25 to 100 nM in assay [3]; 1 to 25 nM in assay [4]; 1 to 25 nM in assay [5].
Take `COc1cc(N2CCC(N3CCN(C)CC3)CC2)ccc1Nc1ncc(Cl)c(Nc2cc3c(cc2NS(C)(=O)=O)CCO3)n1` [Example 220, N-(6-((5-chloro-2-((2-methoxy-4-(4-(4-methylpiperazin-1-yl)piperidin-1-yl)phenyl)amino)pyrimidin-4-yl)amino)-2,3-dihydrobenzofuran-5-yl)methanesulfonamide]: the GI50 in assay [1] fell in the range of 100 to 500 nM; in assay [2], 500 to 2000 nM; in the assay with parental Ba/F3 cell line, 25 to 100 nM; in assay [3], 100 to 500 nM; in assay [4], 100 to 500 nM; in assay [5], 25 to 100 nM.
As to `CN1CCN(C2CCN(c3ccc(Nc4ncc(Cl)c(Nc5cc6c(cc5NS(C)(=O)=O)CCO6)n4)c(Cl)c3)CC2)CC1` [Example 221, N-(6-((5-chloro-2-((2-chloro-4-(4-(4-methylpiperazin-1-yl)piperidin-1-yl)phenyl)amino)pyrimidin-4-yl)amino)-2,3-dihydrobenzofuran-5-yl)methanesulfonamide], the GI50 in assay [1] lay in the range of 25 to 100 nM; in assay [2], 100 to 500 nM; with parental Ba/F3 cell line it was 500 to 2000 nM; in assay [3] it was 25 to 100 nM; in assay [4] it was 25 to 100 nM; in assay [5], 25 to 100 nM.
Take `COc1cc(N2CCC(N3CCN(C)CC3)CC2)c(F)cc1Nc1ncc(Cl)c(Nc2cc3c(cc2NS(C)(=O)=O)CCO3)n1` [Example 222, N-(6-((5-chloro-2-((5-fluoro-2-methoxy-4-(4-(4-methylpiperazin-1-yl)piperidin-1-yl)phenyl)amino)pyrimidin-4-yl)amino)-2,3-dihydrobenzofuran-5-yl)methanesulfonamide]: the GI50 is 1 to 25 nM in assay [1]; 100 to 500 nM in assay [2]; 2000 to 10000 nM in the assay on parental Ba/F3 cell line; 100 to 500 nM in assay [3]; 1 to 25 nM in assay [4]; 1 to 25 nM in assay [5].
